Patent publication US5023239A, “Sialosyl cholesterol, process for producing the same, and neuropathy remedy comprising the same” (MECT Corporation, priority 1986, dated 1991)

Columns and labels:
[1] = system: Neuroblastoma Cell, Neuro 2a Strain; assay: Effect on proliferation / neurite propagation of neuroblastoma cell, Neuro 2a strain; format: cell-based, mouse; conditions: for activity (in words): 24 hours cultivation; for minimal effective concentration: 48 hours after addition
Description: Experiments for confirming the activity of the present compound for promoting propagation of neurites will be explained below.
Effect On Proliferation of Neuroblastoma Cell, Neuro 2a Strain
Neuro 2a was floated on culture medium consisting of 90% of Dulbecco's Modified Eagle's Midium, and 10% of fetal calf serum (FCS), and containing 100 units/ml of penicillin G and 100 micro g/ml of streptomycin sulfate, and then cultivated at 37° C. in a carbon dioxide incubator containing air into which 5% of carbon dioxide was incorporated. The vessel as used was a polystyrene tray having a diameter of 60 mm. 1 to 2×10^4 of the neuroblastoma cells were implanted in each tray and cultivated for 48 hours. The FCS-containing culture was removed from the resultant cell culture. […] When 24 and 48 hours had passed after the addition of these medicines, the number of the living cells increased in the culture, the number of the neurites increased, and the length of the neurites were measured. The experiment was conducted on three trays with respect to each concentration. The resultant data were expressed by average value+standard error (S.E).

ddy male mice = assay: Acute toxicity test, intravenous injection; format: in vivo, mouse; conditions: ddy male mice of 45 weeks age
Description: Acute toxicity test was conducted by intravenously injecting the compounds into ddy male mice of 45 weeks age.

## Gal (beta 1-3) GalNac (beta 1-4 ) <NAcNeu-(alpha2-3)>Gal (beta 1-4) Glc (beta 1-1)-Ceramide [GM1]
[1]
  activity (in words): do not provide any activity
  minimal effective concentration: 10 micro g/ml
[1]; 24 hrs, 10 ng/ml
  Length of neurite ± S.E.: 94.9 ± 6.64 μm/cell
  Number of neurite propagated cells: 145
  Number of neurites ± S.E.: 1.4 ± 0.05 number/cell
  Rate of neurite propagation (%): 43.4%
  Total number of cells: 334
[1]; 24 hrs, 100 ng/ml
  Length of neurite ± S.E.: 101.1 ± 5.09 μm/cell
  Number of neurite propagated cells: 142
  Number of neurites ± S.E.: 1.4 ± 0.06 number/cell
  Rate of neurite propagation (%): 47.8%
  Total number of cells: 297
[1]; 24 hrs, 1 μg/ml
  Length of neurite ± S.E.: 109.7 ± 6.44 μm/cell
  Number of neurite propagated cells: 140
  Number of neurites ± S.E.: 1.4 ± 0.06 number/cell
  Rate of neurite propagation (%): 42.2%
  Total number of cells: 332
[1]; 24 hrs, 10 μg/ml
  Length of neurite ± S.E.: 89.3 ± 4.77 μm/cell
  Number of neurite propagated cells: 149
  Number of neurites ± S.E.: 1.4 ± 0.05 number/cell
  Rate of neurite propagation (%): 45.8%
  Total number of cells: 325
[1]; 24 hrs, 100 μg/ml
  Length of neurite ± S.E.: 90.5 ± 3.88 μm/cell
  Number of neurite propagated cells: 172
  Number of neurites ± S.E.: 1.8 ± 0.06 number/cell
  Rate of neurite propagation (%): 55.5%
  Total number of cells: 310
[1]; 48 hrs, 10 ng/ml
  Length of neurite ± S.E.: 93.7 ± 5.07 μm/cell
  Number of neurite propagated cells: 194
  Number of neurites ± S.E.: 1.4 ± 0.05 number/cell
  Rate of neurite propagation (%): 58.3%
  Total number of cells: 333
[1]; 48 hrs, 100 ng/ml
  Length of neurite ± S.E.: 108.8 ± 5.97 μm/cell
  Number of neurite propagated cells: 156
  Number of neurites ± S.E.: 1.4 ± 0.06 number/cell
  Rate of neurite propagation (%): 44.7%
  Total number of cells: 349
[1]; 48 hrs, 1 μg/ml
  Length of neurite ± S.E.: 109.2 ± 6.09 μm/cell
  Number of neurite propagated cells: 211
  Number of neurites ± S.E.: 1.3 ± 0.04 number/cell
  Rate of neurite propagation (%): 59.9%
  Total number of cells: 352
[1]; 48 hrs, 10 μg/ml
  Length of neurite ± S.E.: 113.8 ± 5.49 μm/cell
  Number of neurite propagated cells: 205
  Number of neurites ± S.E.: 1.3 ± 0.04 number/cell
  Rate of neurite propagation (%): 62.1%
  Total number of cells: 330
[1]; 48 hrs, 100 μg/ml
  Length of neurite ± S.E.: 98.9 ± 5.22 μm/cell
  Number of neurite propagated cells: 193
  Number of neurites ± S.E.: 1.5 number/cell
  Rate of neurite propagation (%): 60.9%
  Total number of cells: 317

## CC(=O)NC1C(O)CC(OC2CCC3(C)C(=CCC4C3CCC3(C)C(C(C)CCCC(C)C)CCC43)C2)(C(=O)O)OC1C(O)C(O)CO [Compound (5), sodium 5-acetoamide-2-O-(5-cholesten-3-beta-yl)-3,5-dideoxy-beta-D-glycero-D-galacto-2-nonulopyranosonate]
[1]; 10 ng/ml
  activity (in words): indicated activity
[1]; 24 hrs, 10 ng/ml
  Length of neurite ± S.E.: 89.4 ± 4.23 μm/cell
  Number of neurite propagated cells: 124
  Number of neurites ± S.E.: 1.3 ± 0.05 number/cell
  Rate of neurite propagation (%): 34.3%
  Total number of cells: 361
[1]; 24 hrs, 100 ng/ml
  Length of neurite ± S.E.: 116.4 ± 5.59 μm/cell
  Number of neurite propagated cells: 156
  Number of neurites ± S.E.: 1.2 ± 0.03 number/cell
  Rate of neurite propagation (%): 40.6%
  Total number of cells: 384
[1]; 24 hrs, 1 μg/ml
  Length of neurite ± S.E.: 130.8 ± 5.16 μm/cell
  Number of neurite propagated cells: 213
  Number of neurites ± S.E.: 1.2 ± 0.04 number/cell
  Rate of neurite propagation (%): 53.8%
  Total number of cells: 396
[1]
  minimal effective concentration: 100 ng/mL
[1]; 48 hrs, 10 ng/ml
  Length of neurite ± S.E.: 110.6 ± 4.93 μm/cell
  Number of neurite propagated cells: 226
  Number of neurites ± S.E.: 1.2 ± 0.04 number/cell
  Rate of neurite propagation (%): 47.9%
  Total number of cells: 472
[1]; 48 hrs, 100 ng/ml
  Length of neurite ± S.E.: 135.1 ± 6.23 μm/cell
  Number of neurite propagated cells: 212
  Number of neurites ± S.E.: 1.3 ± 0.04 number/cell
  Rate of neurite propagation (%): 50.2%
  Total number of cells: 422
[1]; 48 hrs, 1 μg/ml
  Length of neurite ± S.E.: 138.9 ± 5.39 μm/cell
  Number of neurite propagated cells: 252
  Number of neurites ± S.E.: 1.2 ± 0.03 number/cell
  Rate of neurite propagation (%): 55.5%
  Total number of cells: 454
[1]; Neuro 2a culture
  growth / propagation of neurites (in words): strong activity for the propagation of the neurites
[1]; vs GMl, from minimal effective concentrations at 48 hours, molecular weights considered
  activity relative to GMl (times as high): 42 times
[1]; vs GQlb, from minimal effective concentrations at 48 hours, molecular weights considered
  activity relative to GQlb (times as high): 27 times
Ddy male mice
  LD50: 291 mg/kg

## <NAcNeu (alpha 2-8) NAcNeu (alpha 2-3)>Gal (beta 1-3) GalNAc (beta 1-4)- NAcNeu-(alpha 2-8) <NAcNeu- (alpha 2-3)>-Gal (beta 1-4) Glc (beta 1-1)-Ceramide [GQlb]
[1]
  activity (in words): do not provide any activity
  minimal effective concentration: 10 micro g/ml
[1]; 24 hrs, 10 ng/ml
  Length of neurite ± S.E.: 88.5 ± 5.00 μm/cell
  Number of neurite propagated cells: 174
  Number of neurites ± S.E.: 1.3 ± 0.05 number/cell
  Rate of neurite propagation (%): 51.8%
  Total number of cells: 336
[1]; 24 hrs, 100 ng/ml
  Length of neurite ± S.E.: 86.0 ± 4.72 μm/cell
  Number of neurite propagated cells: 159
  Number of neurites ± S.E.: 1.3 ± 0.04 number/cell
  Rate of neurite propagation (%): 48.0%
  Total number of cells: 331
[1]; 24 hrs, 1 μg/ml
  Length of neurite ± S.E.: 97.6 ± 4.95 μm/cell
  Number of neurite propagated cells: 157
  Number of neurites ± S.E.: 1.4 ± 0.05 number/cell
  Rate of neurite propagation (%): 51.0%
  Total number of cells: 308
[1]; 24 hrs, 10 μg/ml
  Length of neurite ± S.E.: 114.9 ± 5.98 μm/cell
  Number of neurite propagated cells: 205
  Number of neurites ± S.E.: 1.4 ± 0.06 number/cell
  Rate of neurite propagation (%): 63.9%
  Total number of cells: 321
[1]; 48 hrs, 10 ng/ml
  Length of neurite ± S.E.: 100.4 ± 5.76 μm/cell
  Number of neurite propagated cells: 158
  Number of neurites ± S.E.: 1.5 ± 0.06 number/cell
  Rate of neurite propagation (%): 42.6%
  Total number of cells: 371
[1]; 48 hrs, 100 ng/ml
  Length of neurite ± S.E.: 90.4 ± 6.06 μm/cell
  Number of neurite propagated cells: 153
  Number of neurites ± S.E.: 1.2 ± 0.04 number/cell
  Rate of neurite propagation (%): 44.1%
  Total number of cells: 347
[1]; 48 hrs, 1 μg/ml
  Length of neurite ± S.E.: 106.5 ± 6.40 μm/cell
  Number of neurite propagated cells: 182
  Number of neurites ± S.E.: 1.3 ± 0.04 number/cell
  Rate of neurite propagation (%): 47.4%
  Total number of cells: 384
[1]; 48 hrs, 10 μg/ml
  Length of neurite ± S.E.: 122.5 ± 6.99 μm/cell
  Number of neurite propagated cells: 214
  Number of neurites ± S.E.: 1.3 ± 0.04 number/cell
  Rate of neurite propagation (%): 61.8%
  Total number of cells: 346
